In patent US11617753B2 (priority 2016, dated 2023):
Where a name gives a salt, the structure may show the parent alone. Read-outs that look alike come from different tables or passages of the source.

Key:
[1] = target: T1, Ebola L polymerase (Zaire ebolavirus, UniProt Q05318); type: cell-based, Ebola virus; conditions: 15 μM
[2] = target: T1, Ebola L polymerase; test: cell-based; design: species or system Ebola virus
[3] = test system: EBOV-Mak; test: microbe, parasite or virus in culture; type: cell-based; conditions: Zaire ebolavirus, Huh-7, read-out: IC50, inhibition of Ebola infectivity
[4] = test system: Huh7 cells; conditions: human
[5] = target: T2, Ebola VP40 protein (Zaire ebolavirus, UniProt Q05128); type: cell-based, Ebola virus
T2 sequence (Q05128 whole entry, looked up): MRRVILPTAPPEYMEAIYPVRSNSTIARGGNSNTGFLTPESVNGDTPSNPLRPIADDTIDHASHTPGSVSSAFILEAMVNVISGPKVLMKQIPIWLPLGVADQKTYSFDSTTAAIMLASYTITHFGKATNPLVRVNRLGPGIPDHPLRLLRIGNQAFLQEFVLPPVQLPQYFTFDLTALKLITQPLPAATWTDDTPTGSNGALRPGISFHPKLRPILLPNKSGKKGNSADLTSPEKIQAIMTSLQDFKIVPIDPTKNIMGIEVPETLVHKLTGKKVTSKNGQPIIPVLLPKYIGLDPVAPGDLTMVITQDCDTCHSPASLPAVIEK

[6] = target: T2, Ebola VP40 protein; type: cell-based, Ebola virus; remark: listed apart in the source

T1 sequence (Q05318 whole entry, looked up): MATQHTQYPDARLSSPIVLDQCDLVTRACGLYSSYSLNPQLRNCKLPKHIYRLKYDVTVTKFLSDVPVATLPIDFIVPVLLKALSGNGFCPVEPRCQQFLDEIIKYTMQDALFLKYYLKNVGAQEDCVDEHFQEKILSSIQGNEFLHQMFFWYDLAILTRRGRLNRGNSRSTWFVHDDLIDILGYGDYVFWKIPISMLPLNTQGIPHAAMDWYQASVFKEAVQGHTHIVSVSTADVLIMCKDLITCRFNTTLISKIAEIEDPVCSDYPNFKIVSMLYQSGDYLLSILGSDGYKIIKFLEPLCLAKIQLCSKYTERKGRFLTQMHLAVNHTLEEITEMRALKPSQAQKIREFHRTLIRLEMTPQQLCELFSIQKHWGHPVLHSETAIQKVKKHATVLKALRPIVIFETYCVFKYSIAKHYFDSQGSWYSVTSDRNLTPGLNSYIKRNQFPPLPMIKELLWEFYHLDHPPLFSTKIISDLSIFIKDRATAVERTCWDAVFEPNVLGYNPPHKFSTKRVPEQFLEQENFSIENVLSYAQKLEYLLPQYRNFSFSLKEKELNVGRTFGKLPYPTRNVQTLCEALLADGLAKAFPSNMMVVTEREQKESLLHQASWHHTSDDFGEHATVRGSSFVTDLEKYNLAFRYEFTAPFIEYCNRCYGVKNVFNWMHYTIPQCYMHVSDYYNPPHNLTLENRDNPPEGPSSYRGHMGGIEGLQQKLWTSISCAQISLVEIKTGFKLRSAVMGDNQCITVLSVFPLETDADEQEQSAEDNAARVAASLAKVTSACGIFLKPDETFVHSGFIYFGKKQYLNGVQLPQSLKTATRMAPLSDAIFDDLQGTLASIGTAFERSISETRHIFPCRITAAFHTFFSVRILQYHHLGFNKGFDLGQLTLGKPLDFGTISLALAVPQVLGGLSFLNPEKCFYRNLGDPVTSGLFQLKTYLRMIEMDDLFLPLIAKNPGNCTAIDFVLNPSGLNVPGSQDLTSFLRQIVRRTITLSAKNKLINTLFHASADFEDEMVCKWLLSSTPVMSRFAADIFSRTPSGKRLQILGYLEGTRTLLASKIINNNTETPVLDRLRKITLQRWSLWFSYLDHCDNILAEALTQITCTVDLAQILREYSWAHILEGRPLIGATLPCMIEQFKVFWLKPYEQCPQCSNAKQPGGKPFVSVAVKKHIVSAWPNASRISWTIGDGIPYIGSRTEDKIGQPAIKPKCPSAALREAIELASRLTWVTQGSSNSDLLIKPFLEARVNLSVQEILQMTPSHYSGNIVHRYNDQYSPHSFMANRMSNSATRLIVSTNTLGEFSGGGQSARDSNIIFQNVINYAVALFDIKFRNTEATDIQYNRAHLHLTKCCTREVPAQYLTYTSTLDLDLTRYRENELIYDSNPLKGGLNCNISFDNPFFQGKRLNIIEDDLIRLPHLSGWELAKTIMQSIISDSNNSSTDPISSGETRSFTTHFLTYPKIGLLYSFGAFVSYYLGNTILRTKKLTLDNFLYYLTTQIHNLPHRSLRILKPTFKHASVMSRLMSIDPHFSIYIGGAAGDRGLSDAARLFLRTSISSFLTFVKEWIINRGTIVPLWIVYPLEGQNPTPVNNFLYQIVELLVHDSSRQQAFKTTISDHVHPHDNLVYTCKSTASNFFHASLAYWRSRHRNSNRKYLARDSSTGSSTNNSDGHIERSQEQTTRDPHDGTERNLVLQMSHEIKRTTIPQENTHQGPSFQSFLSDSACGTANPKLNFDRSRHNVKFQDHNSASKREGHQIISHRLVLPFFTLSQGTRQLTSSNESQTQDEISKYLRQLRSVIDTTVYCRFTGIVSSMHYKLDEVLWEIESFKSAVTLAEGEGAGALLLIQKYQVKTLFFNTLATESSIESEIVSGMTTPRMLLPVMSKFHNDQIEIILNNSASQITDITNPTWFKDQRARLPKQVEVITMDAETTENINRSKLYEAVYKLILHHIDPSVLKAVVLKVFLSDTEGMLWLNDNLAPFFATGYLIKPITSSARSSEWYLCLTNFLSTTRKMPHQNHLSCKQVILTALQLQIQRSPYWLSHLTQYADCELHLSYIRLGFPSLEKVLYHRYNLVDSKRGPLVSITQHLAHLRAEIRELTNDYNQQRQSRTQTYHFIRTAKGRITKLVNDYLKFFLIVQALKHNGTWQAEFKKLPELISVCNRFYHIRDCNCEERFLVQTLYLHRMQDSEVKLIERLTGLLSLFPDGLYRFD

SMILES | % EGFP signal ([1]; hydrochloride) [%] | % mCherry signal ([1]; hydrochloride) [%] | IC50 [2] [nM] | IC50 [3] [nM] | 50% cytotoxicity concentration [4] [nM] | VLP isolated (western blot for VP40) ([5]; 50 nM) | VLP isolated (western blot for VP40) ([5]; 500 nM) | EGFP fluorescent signal, % of solvent control signal, dose-response [6] | concentration at which VLP formation in the cell is prevented (shift in membrane associated VP40) [6] | % EGFP signal [1] [%] | % mCherry signal [1] [%]
NC(=O)c1cn([C@@H]2O[C@H](CO)[C@@H](O)[C@H]2O)c2ncnc(N)c12 [sangivamycin HCl, 4-amino-7-((2R,3R,4S,5R)-3,4-dihydroxy-5-(hydroxymethyl)tetrahydrofuran-2-yl)-7H-pyrrolo[2,3-d]pyrimidine-5-carboxamide (sangivamycin) hydrochloride] | 20 | 10 | – | – | – | – | – | – | – | – | –
NC(=O)c1cn([C@@H]2O[C@H](CO)[C@@H](O)[C@H]2O)c2ncnc(N)c12 [sangivamycin, 4-amino-7-((2R,3R,4S,5R)-3,4-dihydroxy-5-(hydroxymethyl)tetrahydrofuran-2-yl)-7H-pyrrolo[2,3-d]pyrimidine-5-carboxamide] | – | – | 30 | ~100 | > 600 | clear reduction in VLP | drastic reduction in VLP | largest decrease in signal | above 37.5 nM | 27 | 4
